Test results published in US20190054135A1, “PLANT OR MICROORGANISM-DERIVED CAROTENOID-OXYGEN COPOLYMER COMPOSITIONS, METHODS OF IDENTIFYING, QUANTIFYING AND PRODUCING SAME AND USES THEREOF” (Avivagen Inc., priority 2016, published 2019).

What was measured:
[1] = solubility as noted during extraction and precipitation; type: physicochemical; conditions: pH 12-13
Description: Purification and concentration of GA was achieved using chloroform. The chloroform extract contained a complex mixture of substances, including carotenoids and carboxylic acids.
Indeed, addition of hexanes to an ethyl acetate extract of carrot powder #1 yielded a brown precipitate. Redissolving the recovered solid in ethyl acetate and precipitating again with hexanes and repeating the procedure gave a brown solid, which, at ca. 0.7 mg/g, was about 1.4 times the estimated OxPVA level, well within the anticipated range for the GA-based estimate (see Isolated Polymer and Polymer/OxPVA columns in Table 2). A similar ratio (1.6) was found for carrot powder #2, for which the yield of copolymer was around half that of carrot powder #1, in line with the respective relative amounts of GA. Confirmation that the isolated solid is largely composed of carotenoid-oxygen copolymer products was provided by comparison of elemental composition, IR, UV-Vis, GPC and GC-MS thermal decomposition data with the corresponding data for the OxBC polymer.

[2] = test system: prostate carcinogenesis; conditions: rat model of prostate carcinogenesis; cited from earlier work

Row | Compound | solubility in water [1] | inhibition of prostate carcinogenesis [2]
1 | CC(=O)CCCC(C)(C)C(=O)O [GA, geronic acid] | soluble in water | 
2 | CC(C)=CCC/C(C)=C/C=C/C(C)=C/C=C/C(C)=C/C=C/C=C(C)/C=C/C=C(C)/C=C/C=C(\C)CCC=C(C)C [lycopene] |  | not lycopene alone inhibited carcinogenesis
